Results taken from patent US12605358B2, “Composition for preventing or treating nervous system diseases comprising compound that inhibits mTOR signaling pathway as active ingredient” (ALIAD BIOPHARMA, priority 2021, dated 2026).

What was measured:
5xFAD transgenic mice [1] = experiment: NFT removal, AT8/MAP2 staining of brain slices; type: in vivo
Experimental: (§1) 5xFAD animals were administered with HN-1703 at three doses for 14 days to male heterozygotes aged 6 months (all born within 3 days). The behaviors of mice were measured in a dark cycle in which the mice were active while alternating light and dark in a 12-hour cycle in a breeding room chamber, and the mice were freely accessible to food and water and bred in compliance with experimental animal ethical guidelines of Kyung Hee University. In each group, the HN-1703 was intraperitoneally injected at the same time once a day in a volume of 100 μl to 12 mice in a normal group (wild type littermate), 9 5xFAD mice in a vehicle (DMSO administration), 8 5xFAD mice in a 5 mg/kg administered group, 9 5xFAD mice in a 10 mg/kg administered group, and 9 5xFAD mice in a 20 mg/kg administered group. […] In a behavioral measurement room, humidity (40 to 60%) and temperature (22 to 26° C.) were maintained, and reflected light was maintained to avoid sound and light effects. Behavioral measures were measured in Y-maze, Morris Water Maze, and Passive Avoidance test for 18 days in sequence.
A brain slice immunostaining method was modified and used as described in Heo H et al. (J Ethnopharmacol, 2009). Mice were transcardially perfused with 4% PFA. After being immersed and fixed in 4% PFA for 4 hours, the brain tissue was unfrozen in 30% sucrose, frozen in an optimal cutting temperature (OCT) mixture, and stored at −80° C. Brain tissue slices were sectioned in a coronal direction at a thickness of 35 μm. The brain tissue slices were immersed in a storage solution (30% glycerol, 30% ethylene glycol, PBS) and stored at 4° C. The stored brain slices were permeabilized in 0.5% Triton X-100 for 20 minutes and shaken in 2 N HCl for 30 minutes at 37° C. Then, the brain slices were blocked in a free-floating state for 2 hours in 15% standard serum, 3% bovine serum albumin (BSA, bio-WORLD, Dublin, OH, USA) and 0.1% Triton X-100. The slices were shaken with a first antibody for 16 hours at 4° C. […]

5xFAD transgenic mice [2] = experiment: Autophagy activation in neurons and microglia (Iba-1/MAP2/LC3 staining); type: in vivo; settings: FIG. 16
Experimental: as §1
A brain slice immunostaining method was modified and used as described in Heo H et al. (J Ethnopharmacol, 2009). Mice were transcardially perfused with 4% PFA. After being immersed and fixed in 4% PFA for 4 hours, the brain tissue was unfrozen in 30% sucrose, frozen in an optimal cutting temperature (OCT) mixture, and stored at −80° C. Brain tissue slices were sectioned in a coronal direction at a thickness of 35 μm. The brain tissue slices were immersed in a storage solution (30% glycerol, 30% ethylene glycol, PBS) and stored at 4° C. The stored brain slices were permeabilized in 0.5% Triton X-100 for 20 minutes and shaken in 2 N HCl for 30 minutes at 37° C. Then, the brain slices were blocked in a free-floating state for 2 hours in 15% standard serum, 3% bovine serum albumin (BSA, bio-WORLD, Dublin, OH, USA) and 0.1% Triton X-100. The slices were shaken with a first antibody for 16 hours at 4° C. Thereafter, a second antibody complementary to the first antibody was attached at room temperature (22±1° C.) for 45 minutes. Then, the nuclei were washed with physiological saline (PBS) containing 1 μg/ml PI (propidiumiodide, Sigma) or DAPI (1:4000), and then placed on a slide glass and sealed using an aqueous mount, and observed under a confocal scanning microscope for tissue observation (LSM 810 Carl Zeiss, Oberkochen, Germany). […]
FIG. 16 illustrates confocal scanning micrographs of the hippocampal dentate gyrus region after triple staining with an Iba-1 antibody, an MAP2 antibody, and an LC3 antibody, and quantifying the number of LC3+/MAP2+ cells, the number of LC3+/Iba-1+ cells, the number of MAP2+ cells, and the number of Iba-1+ cells.

SMILES: COc1cc(OC)c2c(=O)c3cc4c(cc3oc2c1)OCO4 [HN-1703, 7,9-dimethoxy-10H-[1,3]dioxolo[4,5-b]xanthen-10-one]
- decrease of NFTs compared to the 5xFAD-DMSO group (5xFAD transgenic mice [1]; 20 mg/kg, dentate gyrus, FIG. 9): ≥ 70%
- NFT (AT8 staining) (5xFAD transgenic mice [1]; 5 to 20 mg/kg, all three brain regions examined, FIG. 9): decreased in a dose-dependent manner
- number of neurons stained with NFT (AT8+/MAP2+) (5xFAD transgenic mice [1]; dentate gyrus, FIG. 10): decreased in a dose-dependent manner
- activated microglia, Iba-1+ cells (5xFAD transgenic mice [2]; 5 to 20 mg/kg, compared to the 5xFAD-DMSO control group): greatly reduced
- number of neurons double-stained with MAP2 and LC3-II (5xFAD transgenic mice [2]): increased in a dose-dependent manner
- number of MAP2+ neurons in the dentate gyrus (5xFAD transgenic mice [2]; approaches the WT normal group): increased in a dose-dependent manner
- autophagy-activated microglia double-stained with LC3-II (5xFAD transgenic mice [2]; compared to the 5xFAD-DMSO control group, dose-dependent): increased twice or more
